Counter-ions that a name gives are not always drawn.
Columns and labels:
CK1ε = CK1ε (Homo sapiens (Human), UniProt P49674); assay: CK1ε kinase assay (Caliper LabChip, fluoresceinated peptide substrate); type: biochemical; details: 200 pM CK1ε, 50 μM ATP, 1.5 μM peptide substrate, 22 hours room temperature
Description: (§1) CK1ε and CK1δ Kinase Assays
(§2) The kinase assay was performed in V-bottom 384-well plates. […] The reaction was incubated at room temperature for 22 hours and terminated by adding 45 μl of 35 mM EDTA to each sample. […] Compounds were dissolved at 10 mM in dimethylsulfoxide (DMSO) and evaluated at eleven concentrations. IC50 values were derived by non-linear regression analysis.

CK1δ = CK1δ (Homo sapiens (Human), UniProt P48730); assay: CK1δ kinase assay (Caliper LabChip, fluoresceinated peptide substrate); type: biochemical; details: 200 pM CK1δ, 50 μM ATP, 1.5 μM peptide substrate, 22 hours room temperature
Sequence of CK1δ (P48730 whole entry): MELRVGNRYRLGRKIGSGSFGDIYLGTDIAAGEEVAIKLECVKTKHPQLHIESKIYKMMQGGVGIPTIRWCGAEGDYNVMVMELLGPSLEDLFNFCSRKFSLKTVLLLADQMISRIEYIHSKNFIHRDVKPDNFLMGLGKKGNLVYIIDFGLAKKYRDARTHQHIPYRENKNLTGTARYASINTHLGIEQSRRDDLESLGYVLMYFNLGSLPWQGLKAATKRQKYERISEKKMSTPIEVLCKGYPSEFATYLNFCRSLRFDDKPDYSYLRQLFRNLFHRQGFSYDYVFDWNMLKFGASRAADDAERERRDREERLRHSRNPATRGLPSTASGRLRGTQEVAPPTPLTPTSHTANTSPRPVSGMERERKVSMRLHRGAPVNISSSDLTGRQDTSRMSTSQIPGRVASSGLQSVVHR
Description: as §1, §2

Sequence of CK1ε (P49674 whole entry): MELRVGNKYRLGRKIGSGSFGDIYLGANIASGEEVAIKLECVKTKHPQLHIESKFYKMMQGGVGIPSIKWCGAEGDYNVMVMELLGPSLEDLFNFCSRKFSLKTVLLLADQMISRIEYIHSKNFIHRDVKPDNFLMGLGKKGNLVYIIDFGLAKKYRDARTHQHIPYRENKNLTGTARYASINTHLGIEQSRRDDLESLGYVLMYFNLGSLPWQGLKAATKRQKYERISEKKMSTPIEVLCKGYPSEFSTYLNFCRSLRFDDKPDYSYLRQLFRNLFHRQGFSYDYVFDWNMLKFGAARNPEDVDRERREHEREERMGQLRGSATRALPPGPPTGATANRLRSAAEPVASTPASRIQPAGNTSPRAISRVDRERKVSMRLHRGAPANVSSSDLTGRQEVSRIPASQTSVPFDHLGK

| SMILES | IC50 (CK1ε) [nM] | IC50 (CK1δ) [nM] |
| --- | --- | --- |
| Cn1nc(-c2ccc(F)cc2)c(-c2ccc3nc(NC(=O)c4ccnc(N5CCOCC5)c4)cn3n2)c1-c1ccncc1 [Compound 203, N-(6-(3-(4-Fluorophenyl)-1-methyl-5-(pyridin-4-yl)-1H-pyrazol-4-yl)imidazo[1,2-b]pyridazin-2-yl)-2-morpholinoisonicotinamide] | 7.9 | 0.9 |
| O=C(Nc1cn2nc(-c3cn(C4CC4)nc3-c3ccc(F)cc3)ccc2n1)c1ccnc(F)c1 [Compound 104, N-(6-(1-cyclopropyl-3-(4-fluorophenyl)-1H-pyrazol-4-yl)imidazo[1,2-b]pyridazin-2-yl)-2-fluoroisonicotinamide] | 15.2 | 3.2 |
| Cc1nc(-c2cccnc2)sc1C(=O)Nc1cn2nc(-c3c(-c4ccc(F)cc4)nn(C)c3C3CCNCC3)ccc2n1 [Compound 174, N-(6-(3-(4-Fluorophenyl)-1-methyl-5-(piperidin-4-yl)-1H-pyrazol-4-yl)imidazo[1,2-b]pyridazin-2-yl)-4-methyl-2-(pyridin-3-yl)thiazole-5-carboxamide] | 1.8 | 2.5 |
| Cc1c(NC(=O)c2ccccc2)nc2ccc(-c3cn(C)nc3-c3ccc(F)cc3)nn12 [Compound 195, N-(6-(3-(4-Fluorophenyl)-1-methyl-1H-pyrazol-4-yl)-3-methylimidazo[1,2-b]pyridazin-2-yl)benzamide, 2 TFA] | 137 | 54 |
| Cc1nc(-c2ccncc2)sc1C(=O)Nc1cn2nc(-c3c(-c4ccc(F)cc4)nn(C)c3C3CCOCC3)ccc2n1 [Compound 200, N-(6-(3-(4-Fluorophenyl)-1-methyl-5-(tetrahydro-2H-pyran-4-yl)-1H-pyrazol-4-yl)imidazo[1,2-b]pyridazin-2-yl)-4-methyl-2-(pyridin-4-yl)thiazole-5-carboxamide] | 3 | 0.3 |
| Cc1cc(C(=O)Nc2cn3nc(-c4cn(C)nc4-c4ccc(F)cc4)ccc3n2)ccn1 [Compound 52, N-(6-(3-(4-fluorophenyl)-1-methyl-1H-pyrazol-4-yl)imidazo[1,2-b]pyridazin-2-yl)-2-methylisonicotinamide] | 17.8 | 7.6 |
| Cn1nc(-c2ccc(F)cc2)c(-c2ccc3nc(NC(=O)c4ccnc(N5CCOCC5)c4)cn3n2)c1C1CCNCC1 [Compound 160, N-(6-(3-(4-Fluorophenyl)-1-methyl-5-(piperidin-4-yl)-1H-pyrazol-4-yl)imidazo[1,2-b]pyridazin-2-yl)-2-morpholinoisonicotinamide] | 1 | 1.5 |
| Cn1cc(-c2ccc3nc(NC(=O)c4csc(-c5ccc(Cl)cc5)n4)cn3n2)c(-c2ccc(F)cc2)n1 [Compound 11, 2-(4-chlorophenyl)-N-(6-(3-(4-fluorophenyl)-1-methyl-1H-pyrazol-4-yl)imidazo[1,2-b]pyridazin-2-yl)thiazol-4-carboxamide] | 899 | 24.6 |
| CCc1ccc(C(=O)Nc2cn3nc(-c4cn(C)nc4-c4ccc(F)cc4)ccc3n2)nc1 [Compound 76, 5-ethyl-N-(6-(3-(4-fluorrophenyl)-1-methyl-1H-pyrazol-4-yl)imidazo[1,2-b]pyridazin-2-yl)picolinamide] | 64 | 11.9 |
| Cn1cc(-c2ccc3nc(NC(=O)c4ccccc4)c(Cl)n3n2)c(-c2ccc(F)cc2)n1 [Compound 191, N-(3-Chloro-6-(3-(4-fluorophenyl)-1-methyl-1H-pyrazol-4-yl)imidazo[1,2-b]pyridazin-2-yl)benzamide] | 153 | 24.5 |
| Cn1cc(-c2ccc3nc(NC(=O)C4CCCCCC4)cn3n2)c(-c2ccc(F)cc2)n1 [Compound 88] | 10.5 | 4.2 |
| Cn1nc(-c2ccc(F)cc2)c(-c2ccc3nc(NC(=O)c4ccnc(N)c4)cn3n2)c1N1CCN(CCC(F)(F)F)CC1 [Compound 141, 2-Amino-N-(6-(3-(4-fluorophenyl)-1-methyl-5-(4-(3,3,3-trifluoropropyl)piperazin-1-yl)-1H-pyrazol-4-yl)imidazo[1,2-b]pyridazin-2-yl)isonicotinamide] | 32 | 2.5 |
| Cn1cc(-c2ccc3nc(NC(=O)c4cc(Cl)ccc4F)cn3n2)c(-c2ccc(F)cc2)n1 [Compound 47, 5-chloro-2-fluoro-N-(6-(3-(4-fluorophenyl)-1-methyl-1H-pyrazol-4-yl)imidazo[1,2-b]pyridazin-2-yl)benzamide] | 19.9 | 5.2 |
| Cn1cc(-c2ccc3nc(NC(=O)c4ccccc4)c(C#N)n3n2)c(-c2ccc(F)cc2)n1 [Compound 190, N-(3-Cyano-6-(3-(4-fluorophenyl)-1-methyl-1H-pyrazol-4-yl)imidazo[1,2-b]pyridazin-2-yl)benzamide] | 14.5 | 4.2 |
| Cn1cc(-c2ccc3nc(NC(=O)c4cc(O)ncn4)cn3n2)c(-c2ccc(F)cc2)n1 [Compound 100, N-(6-(3-(4-fluorophenyl)-1-methyl-1H-pyrazol-4-yl)imidazo[1,2-b]pyridazin-2-yl)-6-hydroxypyrimidine-4-carboxamide] | 28.8 | 9.4 |
| Cn1cc(-c2ccc3nc(Nc4ncccn4)cn3n2)c(-c2ccc(F)cc2)n1 [Compound 185, 6-(3-(4-Fluorophenyl)-1-methyl-1H-pyrazol-4-yl)-N-(pyrimidin-2-yl)imidazo[1,2-b]pyridazin-2-amine] | 48 | 16 |
| CCN(CC)Cc1ccc(C(=O)Nc2cn3nc(-c4cn(C)nc4-c4ccc(F)cc4)ccc3n2)cc1 [Compound 31, 4-((diethylamino)methyl)-N-(6-(3-(4-fluorophenyl)-1-methyl-1H-pyrazol-4-yl)imidazo[1,2-b]pyridazin-2-yl)benzamide] | 6.3 | 3.9 |
| Cc1ccncc1C(=O)Nc1cn2nc(-c3cn(C)nc3-c3ccc(F)cc3)ccc2n1 [Compound 73, N-(6-(3-(4-fluorophenyl)-1-methyl-1H-pyrazol-4-yl)imidazo[1,2-b]pyridazin-2-yl)-4-methylnicotinamide] | 6.4 | 2.6 |
| Cn1nc(-c2ccc(F)cc2)c(-c2ccc3nc(NC(=O)c4ccncc4)cn3n2)c1C1CCN(Cc2cocn2)CC1 [Compound 172, N-(6-(3-(4-fluorophenyl)-1-methyl-5-(1-(oxazol-4-ylmethyl)piperidin-4-yl)-1H-pyrazol-4-yl)imidazo[1,2-b]pyridazin-2-yl) isonicotinamide] | 10.4 | 4.5 |
| Cn1cc(-c2ccc3nc(NC(=O)c4ccc(CO)cc4F)cn3n2)c(-c2ccc(F)cc2)n1 [Compound 41, 2-fluoro-N-(6-(3-(4-fluorophenyl)-1-methyl-1H-pyrazol-4-yl)imidazo[1,2-b]pyridazin-2-yl)-4-(hydroxymethyl)benzamide] | 11.5 | 4 |
| Cn1nc(-c2ccc(F)cc2)c(-c2ccc3nc(NC(=O)c4ccncc4)cn3n2)c1N1CCN(C(=O)c2ccon2)CC1 [Compound 133, N-(6-(3-(4-Fluorophenyl)-5-(4-(isoxazole-3-carbonyl)piperazin-1-yl)-1-methyl-1H-pyrazol-4-yl)imidazo[1,2-b]pyridazin-2-yl)isonicotinamide] | 8.1 | 1 |
| Cn1nc(-c2ccc(F)cc2)c(-c2ccc3nc(NC(=O)c4ccnc(F)c4)cn3n2)c1N1CCN(CCC#N)CC1 [Compound 125, N-(6-(5-(4-(2-Cyanoethyl)piperazin-1-yl)-3-(4-fluorophenyl)-1-methyl-1H-pyrazol-4-yl)imidazo[1,2-b]pyridazin-2-yl)-2-fluoroisonicotinamide] | 4.6 | 0.6 |
| Cn1cc(-c2ccc3nc(NC(=O)C4CC4)cn3n2)c(-c2ccc(F)cc2)n1 [Compound 85, N-(6-(3-(4-fluorophenyl)-1-methyl-1H-pyrazol-4-yl)imidazo[1,2-b]pyridazin-2-yl)cyclopropanecarboxamide] | 50.1 | 7 |
| Cn1cc(-c2ccc3nc(NC(=O)C45CC6CC(C)(CC(C)(C6)C4)C5)cn3n2)c(-c2ccc(F)cc2)n1 [Compound 94, (1,3,5S7)-N-(6-(3-(4-fluorophenyl)-1-methyl-1H-pyrazol-4-yl)imidazo[1,2-b]pyridazin-2-yl)-3,5-dimethyladamantane-1-carboxamide] | 34.4 | 8.3 |
| Cc1nc(-c2ccccn2)sc1C(=O)Nc1cn2nc(-c3cn(C)nc3-c3ccc(F)cc3)ccc2n1 [Compound 6, N-(6-(3-(4-fluorophenyl)-1-methyl-1H-pyrazol-4-yl)imidazo[1,2-b]pyridazin-2-yl)-4-methyl-2-(pyridin-2-yl)thiazol-5-carboxamide] | 17.3 | 4.3 |
| Cn1nc(-c2ccc(F)cc2)c(-c2ccc3nc(NC(=O)c4ccncc4)cn3n2)c1C1CCN(Cc2ccon2)CC1 [Compound 169, N-(6-(3-(4-fluorophenyl)-5-(1-(isoxazol-3-ylmethyl)piperidin-4-yl)-1-methyl-1H-pyrazol-4-yl)imidazo[1,2-b]pyridazin-2-yl)isonicotinamide] | 0.8 | 1.4 |
| CN1CCN(c2c(-c3ccc4nc(NC(=O)c5ccnc(F)c5)cn4n3)c(-c3ccc(F)cc3)nn2C)CC1 [Compound 116, 2-fluoro-N-(6-(3-(4-fluorophenyl)-1-methyl-5-(4-methylpiperazin-1-yl)-1H-pyrazol-4-yl)imidazo [1,2-b]pyridazin-2-yl)isonicotinamide] | 9.3 | 0.7 |
| Cn1nc(-c2ccc(F)cc2)c(-c2ccc3nc(NC(=O)c4ccnc(N5CCOCC5)c4)cn3n2)c1C1CCN(CC(N)=O)CC1 [Compound 163, N-(6-(5-(1-(2-Amino-2-oxoethyl)piperidin-4-yl)-3-(4-fluorophenyl)-1-methyl-1H-pyrazol-4-yl)imidazo[1,2-b]pyridazin-2-yl)-2-morpholinoisonicotinamide] | 0.6 | 0.4 |
